Measured values reported in US20250195537A1, “PSYCHEDELIC DRUG TREATMENT OF NEUROPSYCHIATRIC DISORDERS AND CEREBRAL PALSY” (priority 2021, published 2025).

Columns and labels:
[1] = Case reports: patients with depression given ketamine with or without an anxiolytic; format: in vivo, human
[2] = Case report: patient with depression and suicidal ideation given ketamine with or without intranasal oxytocin; format: in vivo, human
[3] = Case report: patient with muscle spasm associated with cerebral palsy given intramuscular ketamine; format: in vivo, human; settings: intramuscular ketamine 0.2-1.2 mg/kg
[4] = cited from earlier work
[5] = ketamine infusions, benzodiazepine users, Albott et al., 2017

## Cc1nnc2n1-c1ccc(Cl)cc1C(c1ccccc1)=NC2 [alprazolam]
[1]; same patient, 0.5 mg alprazolam before the same dose of ketamine
  improvement in depression: significant improvement in depression

## CNC1(c2ccccc2Cl)CCCCC1=O (centres unmarked) [ketamine]
[1]; patient with depression, ketamine alone
  therapeutic benefit: did not benefit therapeutically
[1]; same patient, ketamine without lorazepam, compared to times with lorazepam
  antidepressant effect: reduced antidepressant effect
[2]; ketamine alone, several times, intramuscular 0.25-1.0 mg/kg
  improvement in depression or suicidal ideation: did not experience improvement
[3]
  muscle spasm after the treatment: reduction in their muscle spasm
[4]; concomitant use of benzodiazepines, Andrashko et al., 2020
  antidepressant effect of ketamine: dampened the antidepressant effect
[4]; [5]
  time to antidepressant response: significantly longer
  time to depression relapse: significantly shorter
[4]; one patient, after their benzodiazepine was withdrawn, Ford et al. (2015)
  antidepressant response to ketamine infusions: more robust

## O=C1Nc2ccc(Cl)cc2C(c2ccccc2Cl)=NC1O (centres unmarked) [lorazepam]
[1]; patient with depression, 1 mg lorazepam prior to ketamine, several treatments
  antidepressant effect: experienced an antidepressant effect

## CC[C@H](C)[C@@H]1NC(=O)[C@H](Cc2ccc(O)cc2)NC(=O)[C@@H](N)CSSC[C@@H](C(=O)N2CCC[C@H]2C(=O)N[C@@H](CC(C)C)C(=O)NCC(N)=O)NC(=O)[C@H](CC(N)=O)NC(=O)[C@H](CCC(N)=O)NC1=O [oxytocin]
[2]; same patient, oxytocin 40 IU intranasally 30 minutes before ketamine in same dose range
  severity of depression and suicidal ideation: reduced severity of depression and suicidal ideation
